The record followed here is ChEMBL document CHEMBL1201862, “PubChem BioAssay data set” (2004).

Test systems include A498; CAKI-1; DU-145; EKVX; HCT-15; HL-60; HOP-62; IGROV-1; MDA-MB-231; MDA-MB-435; NCI-H460; OVCAR-3; RPMI-8226; SK-MEL-2; SN12C; SNB-19; SNB-75; SR; T47D; HCC 2998.
Common to all, as to experiment: DTP human tumour cell line panel, 48 h

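Exposure lasted 48 hours, with cells grown in 96-well plates and compounds tested at five concentrations. Here, GI50 denotes the concentration required for 50% inhibition of growth.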 Activity calls are given as the source filed them. No stated cut-off is given here; in the data, active = GI50 up to about 1.1 µM and inactive = higher.

As to `Cc1ccc(-c2nc(-c3nccc4ccccc34)oc2-c2ccccc2)cc1`, the GI50 in the assay on A498 was 30.5 µM (inactive); with CAKI-1, 43.3 µM (inactive); with DU-145 it was 63.2 µM (inactive); in the assay with EKVX it was 20.6 µM (inactive); with HCT-15, 22.9 µM; with HL-60, > 100 µM (inactive). For the same compound, the GI50 is > 100 µM (inactive) with HOP-62; > 100 µM (inactive) with IGROV-1; > 100 µM (inactive) with MDA-MB-231; 64.9 µM (inactive) with MDA-MB-435; 26.7 µM (inactive) with NCI-H460; 56.1 µM (inactive) in the assay on OVCAR-3. Besides, the GI50 in the assay with RPMI-8226 is 38.4 µM (inactive); with SK-MEL-2, 51.9 µM (inactive); with SN12C, 24.8 µM (inactive); with SNB-19, > 100 µM (inactive); in the assay with SNB-75 it was 31.6 µM (inactive); in the assay on SR, 25.8 µM (inactive). Besides, the GI50 in the assay on T47D is 68.2 µM (inactive).
As to `COc1c(-c2cc(C)c(Cl)c(=O)[nH]2)c(O)c(OC)c2occc12`, the GI50 in the assay with CAKI-1 was > 100 µM (inactive); with DU-145, > 100 µM (inactive); in the assay on EKVX it was > 100 µM (inactive); with HCC 2998 it was > 100 µM (inactive); in the assay on HCT-15 it was greater than 100 µM; in the assay with HL-60 it was > 100 µM (inactive). In addition, the GI50 in the assay on HOP-62 was > 100 µM (inactive); with IGROV-1, > 100 µM (inactive); in the assay with MDA-MB-231, 75.9 µM (inactive); with MDA-MB-435, > 100 µM (inactive); with NCI-H460, > 100 µM (inactive); in the assay on OVCAR-3, > 100 µM (inactive). Besides, the GI50 with RPMI-8226 is > 100 µM (inactive); with SK-MEL-2 it was > 100 µM (inactive); in the assay with SN12C, > 100 µM (inactive); in the assay on SNB-19 it was 96.4 µM (inactive); in the assay on SNB-75 it was 26.7 µM (inactive); in the assay with SR, 81.8 µM (inactive). The GI50 with T47D is > 100 µM (inactive).
As to `CCOc1ccc2c(c1)C(/C(C(Cl)=C(Cl)Cl)=[N+](/[O-])OC(=O)c1ccccc1)=N2`, the GI50 in the assay with A498 is > 100 µM (inactive); in the assay on CAKI-1, 32.6 µM (inactive); in the assay on DU-145, 47.2 µM (inactive); in the assay on EKVX, 15.4 µM (inactive); in the assay on HCC 2998, 59.2 µM (inactive); in the assay on HCT-15, 50.2 µM. Besides, the GI50 in the assay on HL-60 is 33.7 µM (inactive); with HOP-62 it was 65.8 µM (inactive); in the assay with MDA-MB-231, 45.7 µM (inactive); in the assay on MDA-MB-435 it was 29.6 µM (inactive); with NCI-H460, 76 µM (inactive); with OVCAR-3, 30.8 µM (inactive). Moreover, the GI50 was 85.9 µM (inactive) in the assay with SK-MEL-2; 78.9 µM (inactive) in the assay on SN12C; 93.1 µM (inactive) with SNB-19; 56.8 µM (inactive) in the assay with SNB-75; 53.1 µM (inactive) in the assay on SR; 26 µM (inactive) in the assay with T47D.
With `COC(=O)C(Cc1ccccc1)NP(=O)(O)OCC1OC(n2cc(Br)c(=O)[nH]c2=O)CC1O` (centres undefined), the GI50 with A498 is > 100 µM (inactive); with DU-145, > 100 µM (inactive); in the assay with EKVX it was > 100 µM (inactive); with HCC 2998, > 100 µM (inactive); in the assay with HCT-15 it was greater than 100 µM; in the assay with HL-60, > 100 µM (inactive). Further, the GI50 with HOP-62, in the assay with IGROV-1, in the assay on MDA-MB-231, in the assay with MDA-MB-435, in the assay with NCI-H460 and with OVCAR-3 was > 100 µM (inactive) throughout. In addition, the GI50 in the assay on SK-MEL-2, in the assay with SN12C, in the assay on SNB-19, in the assay on SNB-75, in the assay on SR and in the assay with T47D was > 100 µM (inactive) throughout.
Take `O=c1c2ccccc2nc2n1NC(c1c(Cl)cccc1Cl)N2c1cccc(Cl)c1` (centres undefined): the GI50 in the assay on CAKI-1 was 10.8 µM (inactive); in the assay with DU-145, 11.4 µM (inactive); in the assay with EKVX, 6.43 µM (inactive); with HCC 2998 it was 4.42 µM (inactive); with HCT-15, 30.3 µM; in the assay on HL-60, > 100 µM (inactive). Further, the GI50 with HOP-62 was 8.38 µM (inactive); in the assay on IGROV-1, 3.34 µM (inactive); with MDA-MB-231, 2.79 µM (inactive); in the assay on MDA-MB-435 it was 9.35 µM (inactive); with NCI-H460, 5.13 µM (inactive); in the assay with OVCAR-3, 10.6 µM (inactive). The GI50 with RPMI-8226 is 4.69 µM (inactive); with SK-MEL-2, 39.1 µM (inactive); in the assay on SN12C, 4.71 µM (inactive); in the assay on SNB-19, 4.43 µM (inactive); in the assay on SNB-75 it was 2.64 µM (inactive); in the assay with SR, 8.55 µM (inactive). Besides, the GI50 in the assay with T47D is 5.56 µM (inactive).
For `O=C(O)c1ccccc1CC1Cc2ccccc2C1=O` (centres undefined), the GI50 with CAKI-1 is > 100 µM (inactive); in the assay on DU-145 it was > 100 µM (inactive); with EKVX, > 100 µM (inactive); in the assay on HCC 2998, > 100 µM (inactive); in the assay with HCT-15, greater than 100 µM; in the assay with HL-60 it was > 100 µM (inactive). Further, the GI50 with HOP-62, in the assay with IGROV-1, in the assay on MDA-MB-231, with MDA-MB-435, in the assay with NCI-H460 and with OVCAR-3 was > 100 µM (inactive) in each case. Further, the GI50 is > 100 µM (inactive) in the assay on RPMI-8226; > 100 µM (inactive) with SK-MEL-2; > 100 µM (inactive) in the assay on SN12C; > 100 µM (inactive) with SNB-19; 64.7 µM (inactive) in the assay with SNB-75; > 100 µM (inactive) with SR. In addition, the GI50 in the assay with T47D is > 100 µM (inactive).
As to `CO[C@@H](c1ccccc1)[C@H](O)[C@@](O)(c1ccccc1)P(=O)(OC)OC`, the GI50 with A498 was > 100 µM (inactive); in the assay with CAKI-1, 34.7 µM (inactive); with DU-145, > 100 µM (inactive); in the assay on EKVX, > 100 µM (inactive); in the assay on HCT-15, greater than 100 µM; in the assay on HL-60 it was > 100 µM (inactive). Moreover, the GI50 in the assay on IGROV-1 is 48.2 µM (inactive); with MDA-MB-231, > 100 µM (inactive); in the assay on MDA-MB-435 it was 44.4 µM (inactive); in the assay with NCI-H460 it was > 100 µM (inactive); with OVCAR-3, > 100 µM (inactive); in the assay on RPMI-8226, > 100 µM (inactive). The GI50 in the assay with SK-MEL-2, in the assay on SN12C, in the assay on SNB-19, with SNB-75, in the assay on SR and with T47D was > 100 µM (inactive) each time.
Regarding `Cc1ccc(NC(=O)CC(=O)N2N=C(N3CCCCC3)CC2c2ccccc2)cc1` (centres undefined), the GI50 is > 100 µM (inactive) in the assay on A498; > 100 µM (inactive) in the assay with CAKI-1; > 100 µM (inactive) in the assay with DU-145; > 100 µM (inactive) in the assay on EKVX; > 100 µM (inactive) in the assay on HCC 2998; greater than 100 µM with HCT-15. For the same compound, the GI50 with HL-60, in the assay on HOP-62, in the assay with IGROV-1, in the assay with MDA-MB-231, in the assay on MDA-MB-435 and with NCI-H460 was > 100 µM (inactive) in each case. Moreover, the GI50 in the assay on OVCAR-3, with SK-MEL-2, with SN12C, in the assay on SNB-19, with SNB-75 and with SR was > 100 µM (inactive) throughout. In the assay with T47D, the GI50 was > 100 µM (inactive).

As usually defined, the GI50 is the concentration at which growth is held to half of that of the control.
